# Measurements reported in US10111932B2, “Coagonists of glucagon-like peptide 1 receptor and neuropeptide Y2 receptor” (Syracuse University, priority 2015, dated 2018).
# Entries after “also recorded” stand apart in the source; their conditions may differ. Ends that are not written are not given here.
# How the values were obtained:
# Type in all cases: cell-based
# [1] = target: T1, GLP-1R (Homo sapiens, UniProt P43220); experiment: GLP-1R agonism, AKAR3 FRET assay in HEK-GLP-1R cells; conditions: for GLP-1R agonism screen: 300 nM, HEK-GLP-1R cells (FIG. 10)
# T1 construct: expressed in transfected cells; host or cells: HEK293
# Protocol: (§1) The RLB series peptides were tested for function at receptors corresponding to the glucagon super family of receptors and NPY receptors. These receptors were transfected into either HEK293 cells or CHO cells. HEK 293 cells stably transfected with either GLP-1R or GIPR followed by an infection of adenovirus incorporating AKAR3 to indirectly follow cAMP production. CHO cells were transfected with NPY2R and a promiscuous g protein using FURA2 to follow calcium release.
# [2] = target: T2, NPY2R (Homo sapiens, UniProt P49146); experiment: NPY2R agonism, FURA2 calcium release in transfected CHO cells
# T2 construct: expressed in transfected cells; host or cells: CHO
# T2 sequence (P49146 1-381): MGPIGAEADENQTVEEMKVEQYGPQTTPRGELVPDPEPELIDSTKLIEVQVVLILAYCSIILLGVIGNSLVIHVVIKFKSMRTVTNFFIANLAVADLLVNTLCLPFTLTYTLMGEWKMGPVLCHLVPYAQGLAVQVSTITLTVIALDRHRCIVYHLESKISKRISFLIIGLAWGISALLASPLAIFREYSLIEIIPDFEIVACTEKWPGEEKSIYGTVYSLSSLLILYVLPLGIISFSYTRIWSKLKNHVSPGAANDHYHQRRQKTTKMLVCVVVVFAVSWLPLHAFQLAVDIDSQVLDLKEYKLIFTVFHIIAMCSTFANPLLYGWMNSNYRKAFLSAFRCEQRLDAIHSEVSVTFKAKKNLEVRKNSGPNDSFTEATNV
# Protocol: as §1
# [3] = target: T3, GIPR (Homo sapiens, UniProt P48546); experiment: GIPR agonism, AKAR3 FRET in HEK293 cells stably transfected with GIPR; conditions: tested up to 1 μM
# T3 construct: expressed in transfected cells; host or cells: HEK293
# T3 sequence (P48546 22-466): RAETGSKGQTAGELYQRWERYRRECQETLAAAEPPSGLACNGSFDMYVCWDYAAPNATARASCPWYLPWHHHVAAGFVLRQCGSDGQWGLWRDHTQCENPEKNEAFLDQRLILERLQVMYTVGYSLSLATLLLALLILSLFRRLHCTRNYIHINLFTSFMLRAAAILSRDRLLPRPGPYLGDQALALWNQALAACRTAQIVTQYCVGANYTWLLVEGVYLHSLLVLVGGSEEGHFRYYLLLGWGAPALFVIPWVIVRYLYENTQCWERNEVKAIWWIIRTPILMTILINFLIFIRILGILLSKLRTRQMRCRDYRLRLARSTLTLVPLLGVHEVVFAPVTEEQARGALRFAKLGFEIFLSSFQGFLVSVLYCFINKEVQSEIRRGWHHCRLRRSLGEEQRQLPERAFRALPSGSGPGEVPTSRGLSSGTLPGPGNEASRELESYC
# Protocol: as §1
# Receptors in the glucagon receptor superfamily were tested based on the similarities of native peptide agonists.
# T1 sequence (P43220 24-463, species assumed): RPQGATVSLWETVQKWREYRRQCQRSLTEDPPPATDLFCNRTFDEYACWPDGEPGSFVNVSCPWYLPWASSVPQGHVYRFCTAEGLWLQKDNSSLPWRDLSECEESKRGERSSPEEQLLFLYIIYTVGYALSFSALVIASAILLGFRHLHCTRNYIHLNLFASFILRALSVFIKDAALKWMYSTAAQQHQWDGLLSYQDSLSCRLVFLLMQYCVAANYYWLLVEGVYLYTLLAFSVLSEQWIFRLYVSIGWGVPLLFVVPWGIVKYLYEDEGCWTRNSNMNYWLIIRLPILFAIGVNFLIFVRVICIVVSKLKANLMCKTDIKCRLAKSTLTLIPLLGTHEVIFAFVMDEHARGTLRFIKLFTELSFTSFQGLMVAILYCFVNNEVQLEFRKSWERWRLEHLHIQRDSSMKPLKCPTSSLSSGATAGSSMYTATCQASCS
molecule,measurement,setting,value
IKPEAPREDASPEEENQAYKEFIAYLNLVTRQRY-NH2 [Peptide 13],GLP-1R agonism screen,[1],no function
CC[C@H](C)[C@H](NC(=O)[C@H](Cc1ccccc1)NC(=O)[C@H](CC(C)C)NC(=O)[C@H](CCCNC(=N)N)NC(=O)[C@@H](NC(=O)[C@H](C)NC(=O)[C@H](CCC(=O)O)NC(=O)[C@H](CCC(=O)O)NC(=O)[C@H](CCC(=O)O)NC(=O)[C@H](CCSC)NC(=O)[C@H](CCC(N)=O)NC(=O)[C@H](CCCCN)NC(=O)[C@H](CO)NC(=O)[C@H](CC(C)C)NC(=O)[C@H](CC(=O)O)NC(=O)[C@H](CO)NC(=O)[C@@H](NC(=O)[C@H](Cc1ccccc1)NC(=O)[C@@H](NC(=O)CNC(=O)[C@H](CCC(=O)O)NC(=O)CNC(=O)[C@@H](N)Cc1c[nH]cn1)[C@@H](C)O)[C@@H](C)O)C(C)C)C(=O)N[C@@H](CCC(=O)O)C(=O)N[C@@H](Cc1c[nH]c2ccccc12)C(=O)N[C@@H](CC(C)C)C(=O)N[C@@H](CCCNC(=N)N)C(=O)N[C@@H](Cc1c[nH]cn1)C(=O)N[C@@H](Cc1ccc(O)cc1)C(=O)N[C@@H](CC(C)C)C(=O)N[C@@H](CC(N)=O)C(=O)N[C@@H](CC(C)C)C(=O)N[C@H](C(=O)N[C@H](C(=O)N[C@@H](CCCNC(=N)N)C(=O)N[C@@H](CCC(N)=O)C(=O)N[C@@H](CCCNC(=N)N)C(=O)N[C@@H](Cc1ccc(O)cc1)C(N)=O)[C@@H](C)O)C(C)C [Peptide 12],GLP-1R agonism screen,[1],have agonism
same,EC50,[1]; dose response,0.253 ± 0.05 nM
same,GLP-1R agonism screening,[1]; peptides at 100 nM (FIG. 3),effective agonists
same,"Potency at the GLP-1R, comparative statement",[1]; relative to the other dual agonists,significant less potent
same,NPY2R agonism screen,[2]; 300 nM (FIG. 12),full function
same,EC50,[2]; dose response,59 nM
same,GIPR agonism,[3],no agonsim; also recorded: no function
